Test results: patent US6376543B1, “Secondary cataract inhibitor” (Kissei Pharmaceuticals Co., Ltd., priority 1996, dated 2002)

Test system: rat lens epithelial cells
Assay: Inhibitory activity on lens epithelial cell proliferation
Type: cell-based
Details: rat lens epithelial cells cultured 4 days in DMEM with 10% FBS and various concentrations of Tranilast; viable cells counted by hemocytometer; FIG. 1
Procedure: Inhibitory Activity on Lens Epithelial Cell Proliferation
(1) Culture of Rat Lens Epithelial Cells
Rat crystalline lens was harvested and cut into narrow strips. The strips were adhered to a culture plate and subcultured in Dulbecco's modified Eagle's Medium (DMEM) containing 10% fetal calf serum (FBS) at 37° C. in an atmosphere of 5% CO2 in air for 4 days. On day 4 (at the point that lens epithelial cells had migrated and profilated from crystalline lens tissues), the medium was aspirated and cells were gently washed with phosphate-buffered saline (PBS(−)). Then, the PBS(−) was aspirated, an aliquot of 0.25% trypsin solution containing 0.02% EDTA was added to the culture plate, and the morphology of the cells was observed under phase-contrast microscopy. When cells were going to be round, an equal value of DMEM containing 10% FBS was added to the trypsin solution to stop the action of trypsin. […]
Cell suspension (2×10^4 cells/0.1 ml) and DMEM medium (1.9 ml) containing various concentration of Tranilast and 10% FBS were added to a culture plate (60 mm), and cultured at 37° C. in an atmosphere of 5% CO2 in air. […] After harvesting cells from the plate by pipetting using a pasture pipette, the number of viable cells was counted using a hemocytometer. […]
Mean and standard variation values of each group were calculated. […]

`COc1ccc(C=CC(=O)Nc2ccccc2C(=O)O)cc1OC` [Tranilast, N-(3,4-dimethoxycinnamoyl)anthranilic acid] was tested, and the “proliferation of lens epithelial cells (number of viable cells)” value was “significantly suppressed the proliferation of lens epithelial cells in a concentration-dependent manner”.
